What was measured:
Assay in all cases: relative viability (nuclei count vs DMSO), 5 days (fraction); higher = more cells survive
[1] = compound: C#Cc1cccc(Nc2ncnc3cc(OCCOC)c(OCCOC)cc23)c1 [Erlotinib] + N=C(N)NC(=N)NCCc1ccccc1 [Phenformin] (partner 250 µM)
Outline: (§1)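 Dosing by pin tool came one day after lung cancer cell lines were seeded in 1536-well plates, using either one drug or a fixed anchor-drug dose plus five library-drug doses (not always all listed) in √10 steps. After 5 days, nuclei were counted on 4× images. Relative viability is treated-well nuclei count divided by vehicle-well nuclei count, and values are medians of duplicate plates.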

[2] = compound: O=C(Nc1c[nH]nc1-c1nc2ccc(CN3CCOCC3)cc2[nH]1)NC1CC1 [AT9283] + Nc1ncn([C@H]2C[C@H](O)[C@@H](CO)O2)c(=O)n1 [Decitabine] (partner 2 µM)
Outline: as §1

[3] = compound: O=C(Nc1c[nH]nc1-c1nc2ccc(CN3CCOCC3)cc2[nH]1)NC1CC1 [AT9283] + CCNC(=O)c1noc(-c2cc(C(C)C)c(O)cc2O)c1-c1ccc(CN2CCOCC2)cc1 [Luminespib] (partner 0.01 µM)
Outline: as §1

[4] = compound: C#Cc1cccc(Nc2ncnc3cc(OCCOC)c(OCCOC)cc23)c1 [Erlotinib] + C[C@]1(O)C[C@@H](c2nc(-c3ccc4ccc(-c5ccccc5)nc4c3)c3c(N)nccn32)C1 [Linsitinib] (partner 1 µM)
Outline: as §1

[5] = compound: O=C(Nc1c[nH]nc1-c1nc2ccc(CN3CCOCC3)cc2[nH]1)NC1CC1 [AT9283] + NC(=O)Nc1cc(-c2cccc(F)c2)sc1C(=O)N[C@H]1CCCNC1 [AZD7762] (partner 0.2 µM)
Outline: as §1

Row | Cell Line | relative viability ([1]; first compound 0.02 µM) | relative viability ([1]; first compound 0.2 µM) | relative viability ([1]; first compound 0.6325 µM) | relative viability ([1]; first compound 2 µM) | relative viability ([2]; first compound 0.003 µM) | relative viability ([2]; first compound 0.03 µM) | relative viability ([2]; first compound 0.09487 µM) | relative viability ([2]; first compound 0.3 µM) | relative viability ([3]; first compound 0.003 µM) | relative viability ([3]; first compound 0.03 µM) | relative viability ([3]; first compound 0.09487 µM) | relative viability ([3]; first compound 0.3 µM) | relative viability ([4]; first compound 0.02 µM) | relative viability ([4]; first compound 0.2 µM) | relative viability ([4]; first compound 0.6325 µM) | relative viability ([5]; first compound 0.003 µM) | relative viability ([5]; first compound 0.03 µM) | relative viability ([5]; first compound 0.09487 µM) | relative viability ([5]; first compound 0.3 µM) | relative viability ([4]; first compound 2 µM)
1 | HCC-15 | 0.472 | 0.491 | 0.63 | 0.382 | 0.604 | 0.309 | 0.182 | 0.126 | 0.302 | 0.234 | 0.133 | 0.115 | 0.927 | 0.922 | 1 | 1.26 | 1.19 | 0.926 | 0.255 | –
2 | HCC-78 | 0.657 | 0.681 | 0.684 | 0.531 | 0.548 | 0.626 | 0.428 | 0.322 | – | – | – | – | 0.5 | 0.439 | 0.401 | 0.593 | 0.44 | 0.353 | 0.234 | 0.383
3 | NCI-H2170 | 0.422 | 0.463 | 0.386 | 0.324 | 0.466 | 0.366 | 0.228 | 0.156 | 0.821 | 0.574 | 0.509 | 0.176 | – | – | – | 0.794 | 0.485 | 0.162 | 0.153 | –
4 | NCI-H23 | – | 0.662 | 0.684 | 0.72 | 0.26 | 0.293 | 0.228 | 0.246 | 0.216 | 0.234 | 0.204 | 0.167 | 0.643 | 0.506 | 0.752 | 0.265 | 0.295 | 0.179 | 0.128 | 0.604
5 | NCI-H838 | 0.668 | 0.509 | 0.694 | 0.493 | 0.436 | 0.293 | 0.265 | 0.226 | 0.341 | 0.232 | 0.203 | 0.22 | 1.19 | 0.93 | 1.05 | 0.968 | 0.705 | 0.612 | 0.655 | 0.906
6 | NCI-H522 | 0.602 | 0.615 | 0.691 | 0.612 | 0.67 | 0.607 | 0.569 | 0.479 | 1.14 | 0.99 | 0.467 | 0.51 | – | – | – | 0.626 | 0.582 | 0.399 | 0.37 | –
7 | NCI-H1650 | 0.4 | 0.263 | 0.411 | 0.274 | 0.565 | 0.499 | 0.387 | 0.238 | 0.21 | 0.182 | 0.219 | 0.231 | – | – | – | – | – | – | – | –
8 | EMC-BAC-2 | 0.578 | 0.571 | 0.559 | 0.502 | 0.992 | 0.496 | 0.338 | 0.321 | 1.21 | 0.358 | 0.318 | 0.289 | 0.795 | 0.705 | 0.703 | 1.04 | 0.411 | 0.349 | 0.281 | 0.584

Reference: the supplement of paper PMC10307832
